Tests used:
[1] = test system: BRD2, BRD3 and BRD4 proteins in RS4;11 cells; conditions: for lowest concentration very effective in inducing degradation of BET proteins: 3 h treatment
[2] = test system: c-Myc protein in RS4;11 cells; test: Western blotting of c-Myc in RS4; format: cell-based, human; conditions: RS4;11 cells, 3 h treatment
[3] = test system: cleaved PARP and cleaved Caspase 3 in RS4;11 cells; test: Western blotting of cleaved PARP / caspase 3 in RS4; format: cell-based, human; conditions: RS4;11 cells; for apoptosis induction revealed by cleavage of PARP: 1 and 10 nM, 24 h treatment
[4] = molecular target: T1, BRD4 BD1 protein (Homo sapiens, UniProt O60885); test: biochemical
[5] = test system: MV4;11, MOLM-13 and RS4;11 acute leukemia cell lines; test: Cell growth inhibition, statements covering the three leukemia cell lines; format: cell-based, human
[6] = test system: MOLM-13 cells; test: Apoptosis by flow cytometry; format: cell-based, human; conditions: MOLM-13, 1–10 μM
[7] = test system: MV4;11 cells; test: Apoptosis by flow cytometry; format: cell-based, human; conditions: MV4;11, 1–10 μM
[8] = test system: RS4;11 cells; test: Apoptosis by flow cytometry; format: cell-based, human; conditions: RS4;11, 1–10 μM
[9] = molecular target: T1, BRD4 BD1 protein; conditions: for times less potent than 3 in binding to BRD4 BD1: vs compound 3

Molecule: 4-((5-(4-((3-Benzyl-9-methyl-4H,6H-thieno[2,3-e][1,2,4]triazolo[3,4-c][1,4]oxazepin-2-yl)ethynyl)-1H-pyrazol-1-yl)pentyl)amino)-2-(2,6-dioxopiperidin-3-yl)isoindoline-1,3-dione [Compound 31]
- lowest concentration very effective in inducing degradation of BET proteins [1]: ≤ 0.1 nM
- lowest concentration reducing the levels of c-Myc protein [2]: ≤ 0.1 nM
- apoptosis induction revealed by cleavage of PARP [3]: potently induce apoptosis

Molecule: Cc1cc2c(s1)-n1c(C)nnc1COC2 [Compound 2, 2,9-dimethyl-4H,6H-thieno[2,3-e][1,2,4]triazolo[3,4-c][1,4]oxazepine]
- IC50 [4]: 4400 ± 700 nM
- Ki [4]: 1500 ± 200 nM

Molecule: 4-((4-(4-((3-Benzyl-9-methyl-4H,6H-thieno[2,3-e][1,2,4]triazolo[3,4-c][1,4]oxazepin-2yl)ethynyl)-1H-pyrazol-1-yl)butyl)amino)-2-(2,6-dioxopiperidin-3-yl)isoindoline-1,3-dione [Compound 30]
- lowest concentration very effective in inducing degradation of BET proteins [1]: ≤ 0.1 nM
- lowest concentration reducing the levels of c-Myc protein [2]: ≤ 0.1 nM
- apoptosis induction revealed by cleavage of PARP [3]: potently induce apoptosis
- times more potent than 29 in cell growth inhibition ([5]; each of the three leukemia cell lines): 2–3 times

Molecule: 4-(5-(4-((3-Benzyl-9-methyl-4H,6H-thieno[2,3-e][1,2,4]triazolo[3,4-c][1,4]oxazepin-2-yl)ethynyl)-1H-pyrazol-1-yl)pent-1-yn-1-yl)-2-(2,6-dioxopiperidin-3-yl)isoindoline-1,3-dione [Compound 36]
- times less potent than 35 in cell growth inhibition ([5]; three leukemia cell lines): 10–100 times

Molecule: Cc1nnc2n1-c1sc(C#Cc3cnn(C)c3)c(Cc3ccccc3)c1COC2 [Compound 22, 3-Benzyl-9-methyl-2-((1-methyl-1H-pyrazol-4-yl)ethynyl)-4H,6H-thieno[2,3-e][1,2,4]triazolo[3,4-c][1,4]oxazepine]
- PARP cleavage ([3]; 10 μM, 24 h): only marginally
- apoptosis induction [6]: minimal to modest effect
- apoptosis induction [7]: minimal to modest effect
- apoptosis induction [8]: minimal to modest effect

Molecule: Cc1nnc2n1-c1sc(C#N)c(Cc3ccccc3)c1COC2 [Compound 9, 3-Benzyl-9-methyl-4H,6H-thieno[2,3-e][1,2,4]triazolo[3,4-c][1,4]oxazepine-2-carbonitrile]
- times less potent than 3 in binding to BRD4 BD1 [9]: 6 times
- times less potent than 8 in binding to BRD4 BD1 ([9]; vs compound 8): 3 times

Molecule: Cc1nnc2n1-c1scc(Cc3ccccc3)c1COC2 [Compound 4, 3-Benzyl-9-methyl-4H,6H-thieno[2,3-e][1,2,4]triazolo[3,4-c][1,4]oxazepine]
- times less potent than 3 in binding to BRD4 BD1 [9]: 25 times

Molecule: 4-((4-((3-Benzyl-9-methyl-4H,6H-thieno[2,3-e][1,2,4]triazolo[3,4-c][1,4]oxazepin-2-yl)ethynyl)-1H-pyrazol-1-yl)methoxy)-2-(2,6-dioxopiperidin-3-yl)isoindoline-1,3-dione [Compound 27]
- degradation of BRD2 and BRD3 relative to BRD4 [1]: more effectively than the BRD4 protein
- relative potency in inducing degradation of BET proteins [1]: much less potent than compounds 29, 30 and 31
- lowest concentration very effective in inducing degradation of BRD2, BRD3 and BRD4 ([1]; time- and dose-dependent): ≤ 10 nM

Molecule: 4-((2-(4-((3-Benzyl-9-methyl-4H,6H-thieno[2,3-e][1,2,4]triazolo[3,4-c][1,4]oxazepin-2-yl)ethynyl)-1H-pyrazol-1-yl)ethyl)amino)-2-(2,6-dioxopiperidin-3-yl)isoindoline-1,3-dione [Compound 28]
- apoptosis induction revealed by cleavage of PARP [3]: potently induce apoptosis

Molecule: 4-(4-((3-Benzyl-9-methyl-4H,6H-thieno[2,3-e][1,2,4]triazolo[3,4-c][1,4]oxazepin-2-yl)ethynyl)-1H-pyrazol-1-yl)-2-(2,6-dioxopiperidin-3-yl)isoindoline-1,3-dione [Compound 26]
- degradation of BRD2, BRD3 and BRD4 proteins ([1]; up to 1,000 nM, 24 h treatment): failed to induce degradation
- cell growth inhibitory activity ([5]; concentrations up to 1,000 nM, any of the three leukemia cell lines): failed to show significant cell growth inhibitory activity

Molecule: 4-((3-(4-((3-Benzyl-9-methyl-4H,6H-thieno[2,3-e][1,2,4]triazolo[3,4-c][1,4]oxazepin-2yl)ethynyl)-1H-pyrazol-1-yl)propyl)amino)-2-(2,6-dioxopiperidin-3-yl)isoindoline-1,3-dione [Compound 29]
- lowest concentration very effective in inducing degradation of BET proteins [1]: ≤ 0.1 nM
- apoptosis induction revealed by cleavage of PARP [3]: potently induce apoptosis
- times more potent than 28 in cell growth inhibition ([5]; three cell lines): 3–10 times

Molecule: Cc1nnc2n1-c1sc(C3CCOCC3)c(Cc3ccccc3)c1COC2 [Compound 6, 3-Benzyl-9-methyl-2-(tetrahydro-2H-pyran-4-yl)-4H,6H-thieno[2,3-e][1,2,4]triazolo[3,4c][1,4]oxazepine]
- times less potent than 3 in binding to BRD4 BD1 [9]: > 50 times

Source: PMC6545111 (Journal of medicinal chemistry, 2018)
